Measured values: US9630949B2, “Oxoazetidine derivatives, process for the preparation thereof and use thereof in human medicine and in cosmetics” (GALDERMA RESEARCH & DEVELOPMENT, priority 2008, dated 2017)
Where a name gives a salt, the structure may show the parent alone.

Assays:
[1] = molecular target: hMC1R (Homo sapiens (Human), UniProt Q01726); experiment: Transactivation test: melanocortin receptors (pCRE-Luc luciferase reporter), hMC1R; type: cell-based; conditions: HEK293 transfected with pCRE-Luc and hMC1R; products tested alone (agonist), 6 h incubation; % activity vs NDP-MSH 10 nM; IA: inactive
Chain of hMC1R (Q01726 whole entry): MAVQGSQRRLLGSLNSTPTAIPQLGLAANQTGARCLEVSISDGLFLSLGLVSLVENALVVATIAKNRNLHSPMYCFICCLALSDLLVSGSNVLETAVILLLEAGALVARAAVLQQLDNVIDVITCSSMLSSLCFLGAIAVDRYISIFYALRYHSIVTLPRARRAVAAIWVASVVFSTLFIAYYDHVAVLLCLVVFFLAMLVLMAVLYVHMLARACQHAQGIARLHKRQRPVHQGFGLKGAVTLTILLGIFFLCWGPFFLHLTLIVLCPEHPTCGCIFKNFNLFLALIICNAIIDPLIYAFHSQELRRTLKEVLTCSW
Procedure: (§1) Transactivation Test: Melanocortin Receptors
(§2) HEK293 lines are transfected with the pCRE-Luc and hMC1R, hMC3R, hMC4R or hMC5R vectors. The cells are cultured at 37° C., 5% CO2, in DMEM medium supplemented with 10% of foetal calf serum.
(§3) In the presence of an activator (agonist), the melanocortin receptor will activate the cAMP pathway which, via the CRE-Luc vector, will result in the synthesis of luciferase. After the addition of a lysis buffer containing a luminescent substrate for luciferase, it will be possible to measure the luminescence proportional to the degree of activation or of inhibition of the receptor.
(§4) The products are solubilized at 10 mM in DMSO. They are tested in the form of dose-response at a final DMSO concentration of 0.1%. The range comprising 10 points and one zero begins at 10 μM with 4-fold dilutions. For testing agonists, the products are tested alone. For determining the behaviour of antagonists, the products of interest are tested in the presence of 1 nM NDP-MSH (reference agonist). The cells are seeded at a rate of 5000 cells per well (384 well plate) in serum-free DMEM medium, and incubated overnight at 37° C., 5% CO2.
(§5) The products and the reference ligand (NDP-MSH) are added the following day, and the plates are again incubated for 6 h at 37° C., 5% CO2. After the addition of lysis buffer containing luciferin, the plates are read on a Top-Count instrument. The results are standardized as % activity using the 100% (cells+NDP-MSH at 10 nM) and 0% (cells alone) controls. An EC50 is calculated for each product using the XLFit software. The results are given in nM.

[2] = molecular target: hMC4R (Homo sapiens (Human), UniProt P32245); experiment: Transactivation test: melanocortin receptors (pCRE-Luc luciferase reporter), hMC4R; type: cell-based; conditions: HEK293 transfected with pCRE-Luc and hMC4R; products tested alone (agonist), 6 h incubation; % activity vs NDP-MSH 10 nM; IA: inactive
Chain of hMC4R (P32245 whole entry): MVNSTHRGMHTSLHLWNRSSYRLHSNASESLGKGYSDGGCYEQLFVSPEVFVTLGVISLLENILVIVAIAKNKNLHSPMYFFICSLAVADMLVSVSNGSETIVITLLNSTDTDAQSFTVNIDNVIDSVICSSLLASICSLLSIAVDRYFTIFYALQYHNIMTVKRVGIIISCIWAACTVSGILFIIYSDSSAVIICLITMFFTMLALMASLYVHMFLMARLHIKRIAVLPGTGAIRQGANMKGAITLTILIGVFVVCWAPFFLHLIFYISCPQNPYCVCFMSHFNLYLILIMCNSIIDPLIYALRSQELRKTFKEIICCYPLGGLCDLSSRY
Procedure: as §1, §2, §3, §4, §5

Row | SMILES | EC50 [1] | EC50 [2]
1 | CCCCOC1(c2ccccc2)CN(C(=O)[C@@H](CC2CCCCC2)NC(=O)CCc2c[nH]cn2)C1 [Compound 18, N-[(R)-2-(3-butoxy-3-phenylazetidin-1-yl)-1-cyclohexylmethyl-2-oxoethyl]-3-(1H-imidazol-4-yl)propionamide] | 8000 nM | 8000 nM
2 | CCCCOC1(c2ccccc2C)CN(C(=O)[C@@H](Cc2ccc(OC)cc2)NC(=O)CCc2[nH]cnc2C)C1 [Compound 41, N-[(R)-2-(3-butoxy-3-o-tolylazetidin-1-yl)-1-(4-methoxybenzyl)-2-oxoethyl]-3-(5-methyl-3H-imidazol-4-yl)propionamide] | 120 nM | 1000 nM
3 | CCCCOC1(c2ccccc2C)CN(C(=O)[C@H](Cc2ccc(OC)cc2)NC(=O)CCc2c[nH]cn2)C1 [Compound 16, N-[(S)-2-(3-butoxy-3-o-tolylazetidin-1-yl)-1-(4-methoxybenzyl)-2-oxoethyl]-3-(1H-imidazol-4-yl)propionamide] | 2000 nM | 15000 nM
4 | CCCCOC1(c2ccc(F)cc2)CN(C(=O)[C@@H](Cc2ccccc2)NC(=O)CCC2=NCC=N2)C1 [Compound 34, N-{(R)-1-benzyl-2-[3-butoxy-3-(4-fluoro-phenyl)azetidin-1-yl]-2-oxoethyl}-3-(4H-imidazol-2-yl)propionamide] | 1000 nM | 2000 nM
5 | CCCCOC1(c2ccccc2C)CN(C(=O)[C@@H](Cc2ccc(O)cc2)NC(=O)CCc2cnc[nH]2)C1 [Compound 72, N-[(R)-2-(3-Butoxy-3-o-tolylazetidin-1-yl)-1-(4-hydroxybenzyl)-2-oxoethyl]-3-(3H-imidazol-4-yl)propionamide] | 2000 nM | 
6 | CCCCOC1(c2ccc(F)cc2)CN(C(=O)[C@H](Cc2ccc(OC)cc2)NC(=O)[C@H](Cc2c[nH]cn2)NC(=O)c2ccccc2)C1 [Compound 8, N-[(S)-1-[(S)-2-[3-butoxy-3-(4-fluorophenyl)azetidin-1-yl]-1-(4-methoxybenzyl)-2-oxoethylcarbamoyl]-2-(1H-imidazol-4-yl)ethyl]benzamide] | 120 nM | 4000 nM
7 | COc1ccc(C[C@@H](NC(=O)CCc2c[nH]cn2)C(=O)N2CC(OCCCC(F)(F)F)(c3ccccc3C)C2)cc1 [Compound 78] | 120 nM | 2000 nM
8 | CCCCOC1(c2ccc(F)cc2)CN(C(=O)[C@@H](Cc2cccc(F)c2)NC(=O)CCc2c[nH]cn2)C1 [Compound 31, N-[(R)-2-[3-butoxy-3-(4-fluorophenyl)azetidin-1-yl]-1-(3-fluorobenzyl)-2-oxoethyl]-3-(1H-imidazol-4-yl)propionamide] | 500 nM | 4000 nM
9 | CCCCOC1(c2ccccc2C)CN(C(=O)C(Cc2ccc(OC)cc2O)NC(=O)CCc2cnc[nH]2)C1 (stereo not shown) [Compound 70, N-[2-(3-Butoxy-3-o-tolylazetidin-1-yl)-1-(2-hydroxy-4-methoxybenzyl)-2-oxoethyl]-3-(3H-imidazol-4-yl)propionamide trifluoroacetate] | 4000 nM | 
10 | CCCCOC1(c2ccccc2C)CN(C(=O)C(Cc2ccc(Cl)cc2Cl)NC(=O)CC(CCC)c2c[nH]cn2)C1 (stereo not shown) [Compound 65, N-[2-(3-butoxy-3-o-tolylazetidin-1-yl)-1-(2,4-dichlorobenzyl)-2-oxoethyl]-3-(1H-imidazol-4-yl)hexyramide] |  | 100 nM
11 | CCCCCC1(c2ccccc2F)CN(C(=O)[C@@H](Cc2ccc(OC)cc2)NC(=O)CCc2c[nH]cn2)C1 [Compound 43, N-[(R)-2-[3-(2-fluorophenyl)-3-pentylazetidin-1-yl]-1-(4-methoxybenzyl)-2-oxoethyl]-3-(1H-imidazol-4-yl)propionamide] | 30 nM | 
12 | CCCCOC1(c2ccccc2C)CN(C(=O)C(Cc2ccc(OC)cc2)NC(=O)CC(CCC)c2c[nH]cn2)C1 (stereo not shown) [Compound 62, N-[2-(3-butoxy-3-o-tolylazetidin-1-yl)-1-(4-methoxybenzyl)-2-oxoethyl]-3-(1H-imidazol-4-yl)hexyramide] |  | 500 nM

Now from value to compound, other results behind:

Row | EC50 [1] | SMILES | EC50 [2]
13 | 250 nM | CCOC1(c2ccccc2C)CN(C(=O)[C@@H](Cc2ccc(OC)cc2)NC(=O)CCc2c[nH]cn2)C1 [Compound 17, N-[(R)-2-(3-ethoxy-3-o-tolylazetidin-1-yl)-1-(4-methoxybenzyl)-2-oxoethyl]-3-(1H-imidazol-4-yl)propionamide] | 8000 nM
14 | 1000 nM | CCCCCC1(c2ccccc2)CN(C(=O)[C@@H](Cc2ccc(C(F)(F)F)cc2)NC(=O)CCc2c[nH]cn2)C1 [Compound 51, N-[(R)-2-oxo-2-(3-pentyl-3-phenylazetidin-1-yl)-1-(4-trifluoromethylbenzyl)ethyl]-3-(1H-imidazol-4-yl)propionamide] | 
15 | 4000 nM | CCCCCC1(c2ccccc2)CN(C(=O)[C@@H](Cc2cccc(F)c2)NC(=O)CCc2c[nH]cn2)C1 [Compound 56, N-[(R)-1-(3-fluorobenzyl)-2-oxo-2-(3-pentyl-3-phenylazetidin-1-yl)ethyl]-3-(1H-imidazol-4-yl)propionamide] | 8000 nM
16 | 120 nM | COc1ccc(C[C@@H](NC(=O)CCc2c[nH]cn2)C(=O)N2CC(OCC3CC3)(c3ccccc3C)C2)cc1 [Compound 20, N-[(R)-2-(3-cyclopropylmethoxy-3-o-tolylazetidin-1-yl)-1-(4-methoxybenzyl)-2-oxoethyl]-3-(1H-imidazol-4-yl)propionamide] | 4000 nM
17 | 250 nM | CCCCCOC1(c2ccccc2C)CN(C(=O)[C@@H](Cc2ccc(OC)cc2)NC(=O)CCc2c[nH]cn2)C1 [Compound 24, N-[(R)-1-(4-methoxybenzyl)-2-oxo-2-(3-pentyloxy-3-o-tolylazetidin-1-yl)ethyl]-3-(1H-imidazol-4-yl)propionamide] | 4000 nM
18 | 15 nM | CCCCCC1(c2ccc(F)cc2F)CN(C(=O)[C@@H](Cc2ccc(OC)cc2)NC(=O)CCc2c[nH]cn2)C1 [Compound 49, N-[(R)-2-[3-(2,4-difluorophenyl)-3-pentylazetidin-1-yl]-1-(4-methoxybenzyl)-2-oxoethyl]-3-(1H-imidazol-4-yl)propionamide] | 2000 nM
19 | 500 nM | CCCCCC1(c2ccccc2)CN(C(=O)[C@@H](Cc2ccccc2)NC(=O)CCc2c[nH]cn2)C1 [Compound 47, N-[(R)-1-benzyl-2-oxo-2-(3-pentyl-3-phenylazetidin-1-yl)ethyl]-3-(1H-imidazol-4-yl)propionamide] | 4000 nM
20 | 4000 nM | CCCOC1(c2ccccc2C)CN(C(=O)[C@H](Cc2ccc(OC)cc2)NC(=O)CCc2c[nH]cn2)C1 [Compound 21, N-[(S)-1-(4-methoxybenzyl)-2-oxo-2-(3-propoxy-3-o-tolylazetidin-1-yl)ethyl]-3-(1H-imidazol-4-yl)propionamide] | 
21 | 250 nM | CCCCCC1(c2ccc(Cl)c(Cl)c2)CN(C(=O)[C@@H](Cc2ccc(OC)cc2)NC(=O)CCc2c[nH]cn2)C1 [Compound 54, N-[(R)-2-[3-(3,4-dichlorophenyl)-3-pentylazetidin-1-yl]-1-(4-methoxybenzyl)-2-oxoethyl]-3-(1H-imidazol-4-yl)propionamide] | 
22 | 500 nM | CCCC(=O)OC1(c2ccccc2)CN(C(=O)[C@H](Cc2ccc(OC)cc2)NC(=O)[C@H](Cc2c[nH]cn2)NC(=O)c2ccccc2)C1 [Compound 1, 1-[(S)-2-[(S)-2-benzoylamino-3-(1H-imidazol-4-yl)propionylamino]-3-(4-methoxyphenyl)propionyl]-3-phenylazetidin-3-yl ester of butyric acid] | 
23 | 1000 nM | COc1ccc(C[C@@H](NC(=O)CCc2c[nH]cn2)C(=O)N2CC(O)(c3ccccc3C)C2)cc1 [Compound 29, N-[(R)-2-(3-hydroxy-3-o-tolylazetidin-1-yl)-1-(4-methoxybenzyl)-2-oxoethyl]-3-(1H-imidazol-4-yl)propionamide] | 
24 | 8000 nM | O=C(CCc1c[nH]cn1)N[C@H](Cc1ccc(Cl)c(Cl)c1)C(=O)N1CC(O)(c2ccccc2)C1 [Compound 12, N-[(R)-1-(3,4-dichlorobenzyl)-2-(3-hydroxy-3-phenylazetidin-1-yl)-2-oxoethyl]-3-(1H-imidazol-4-yl)propionamide] | 
25 | 250 nM | CCCCCC1(c2ccc(F)cc2)CN(C(=O)[C@@H](Cc2ccc(OC)cc2)NC(=O)CCc2c[nH]cn2)C1 [Compound 38, N-[(R)-2-[3-(4-fluorophenyl)-3-pentylazetidin-1-yl]-1-(4-methoxybenzyl)-2-oxoethyl]-3-(1H-imidazol-4-yl)propionamide] | 
26 | 30 nM | CCCCCC1(c2ccccc2Cl)CN(C(=O)[C@@H](Cc2ccc(OC)cc2)NC(=O)CCc2c[nH]cn2)C1 [Compound 44, N-[(R)-2-[3-(2-chlorophenyl)-3-pentylazetidin-1-yl]-1-(4-methoxybenzyl)-2-oxoethyl]-3-(1H-imidazol-4-yl)propionamide] | 
27 | 8000 nM | COc1ccc(C[C@H](NC(=O)CCc2c[nH]cn2)C(=O)N2CC(O)(C3CCCCC3)C2)cc1 [Compound 10, N-[(S)-2-(3-cyclohexyl-3-hydroxyazetidin-1-yl)-1-(4-methoxybenzyl)-2-oxoethyl]-3-(1H-imidazol-4-yl)propionamide] | 
